Assay results from patent US8003649B2 (AstraZeneca AB, priority 2007, dated 2011).

Target: T1, Androgen Receptor (AR) (Homo sapiens, UniProt P10275, T878A)
T1 construct: cell based immuno-fluorescence assay using the LNCaP prostate epithelial cell line; endogenous in cells; host or cells: LNCaP clone FGC (ATCC CRL-1740)
T1 sequence (P10275 1-920 T878A): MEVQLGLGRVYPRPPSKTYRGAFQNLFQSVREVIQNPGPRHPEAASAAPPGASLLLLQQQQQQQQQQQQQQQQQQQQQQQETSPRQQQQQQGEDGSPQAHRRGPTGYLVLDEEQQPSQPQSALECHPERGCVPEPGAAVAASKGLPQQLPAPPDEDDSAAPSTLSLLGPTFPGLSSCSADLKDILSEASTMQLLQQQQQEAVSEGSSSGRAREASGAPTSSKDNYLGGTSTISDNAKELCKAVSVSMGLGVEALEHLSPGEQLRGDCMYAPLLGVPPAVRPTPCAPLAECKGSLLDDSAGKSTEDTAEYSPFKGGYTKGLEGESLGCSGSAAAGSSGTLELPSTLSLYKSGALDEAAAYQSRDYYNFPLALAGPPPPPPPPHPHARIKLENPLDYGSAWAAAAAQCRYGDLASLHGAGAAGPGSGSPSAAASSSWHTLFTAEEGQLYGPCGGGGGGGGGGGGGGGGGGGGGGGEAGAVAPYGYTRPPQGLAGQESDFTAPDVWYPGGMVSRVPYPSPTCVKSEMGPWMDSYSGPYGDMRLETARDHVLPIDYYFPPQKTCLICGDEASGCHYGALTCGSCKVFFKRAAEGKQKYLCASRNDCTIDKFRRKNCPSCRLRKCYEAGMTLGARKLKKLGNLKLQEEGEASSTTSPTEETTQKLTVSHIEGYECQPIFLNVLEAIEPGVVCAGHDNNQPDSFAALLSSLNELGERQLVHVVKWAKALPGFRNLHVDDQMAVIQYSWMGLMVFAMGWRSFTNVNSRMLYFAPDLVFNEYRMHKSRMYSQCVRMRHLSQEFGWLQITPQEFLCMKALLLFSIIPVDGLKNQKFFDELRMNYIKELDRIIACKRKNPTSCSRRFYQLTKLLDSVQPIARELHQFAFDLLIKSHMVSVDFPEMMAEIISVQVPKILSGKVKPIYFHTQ
Experiment: LNCaP Androgen Receptor Down-regulation Cell Assay (immunofluorescence end point)
Type: cell-based
Conditions: LNCaP prostate carcinoma cells, compound incubation 20-22 hours, 50% reduction of the AR signal; read-out: Androgen Receptor Down-regulation Assay (a) IC50/μM
Outline: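 LNCaP cells in medium with 5% charcoal-stripped FBS were plated overnight, then treated with a compound dilution series for 20-22 h at 37° C. After fixation, permeabilisation and immunostaining, AR-associated green fluorescence was quantified by laser-scanning microplate cytometry; AR down-regulation expressed as IC50 from fitted dose-response curves.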

| Structure (SMILES) | DC50 |
| --- | --- |
| CN1CCN(C(=O)c2ccc(OC3CCN(c4ccc5nnc(C(F)(F)F)n5n4)CC3)cc2)CC1 [Example 414] | > 10 µM |
| COCCNC(=O)c1ccc(OC2CCN(c3ccc4nnc(C(F)(F)F)n4n3)CC2)cc1 [Example 416] | 2.7 µM |
| CN(C)C(=O)c1ccc(OC2CCN(c3ccc4nnc(C(F)(F)F)n4n3)CC2)cc1 [Example 417] | 4.6 µM |
| O=C(c1ccc(OC2CCN(c3ccc4nnc(C(F)(F)F)n4n3)CC2)cc1)N1CC[C@@H](O)C1 [Example 418] | > 14 µM |
| O=C(c1ccc(OC2CCN(c3ccc4nnc(C(F)(F)F)n4n3)CC2)cc1)N1CCOCC1 [Example 420] | 5.9 µM |
| O=C(NCCN1CCOCC1)c1ccc(OC2CCN(c3ccc4nnc(C(F)(F)F)n4n3)CC2)cc1 [Example 424] | 2.2 µM |
| COCCN(C)C(=O)c1ccc(OC2CCN(c3ccc4nnc(C(F)(F)F)n4n3)CC2)cc1 [Example 425] | 3.6 µM |
| CN1CCC(NC(=O)c2ccc(OC3CCN(c4ccc5nnc(C(F)(F)F)n5n4)CC3)cc2)CC1 [Example 427] | 4.3 µM |
| CN(C)CCNC(=O)c1ccc(OC2CCN(c3ccc4nnc(C(F)(F)F)n4n3)CC2)cc1 [Example 429] | 2.6 µM |
| CN1CCN(CCOc2ccc(OC3CCN(c4ccc5nnc(C(F)(F)F)n5n4)CC3)cc2)CC1 [Example 440] | 2.3 µM |
| N#Cc1ccc(OC2CCN(c3ccc4nnc(C(F)(F)F)n4n3)CC2)cn1 [Example 448, 5-[[1-[3-(trifluoromethyl)-[1,2,4]triazolo[4,3-b]pyridazin-6-yl]piperidin-4-yl]oxy]pyridine-2-carbonitrile] | 6.3 µM |
| N#Cc1cc(OC2CCN(c3ccc4nnc(C(F)(F)F)n4n3)CC2)ccn1 [Example 449, 4-[[1-[3-(trifluoromethyl)[1,2,4]triazolo[4,3-b]pyridazin-6-yl]piperidin-4-yl]oxy]pyridine-2-carbonitrile] | 4.8 µM |
| O=S(=O)(c1ccc(F)cc1)N1CC2CN(c3ccc4nnc(C(F)(F)F)n4n3)CC2C1 (centres unmarked) [Example 453] | 5.7 µM |
| COc1cccc(S(=O)(=O)N2CC3CN(c4ccc5nnc(C(F)(F)F)n5n4)CC3C2)c1 (centres unmarked) [Example 454] | 9.2 µM |
| O=S(=O)(c1cccc(F)c1)N1CCCN(c2ccc3nnc(C(F)(F)F)n3n2)CC1 [Example 456] | 21 µM |
| O=S(=O)(c1ccccc1F)N1CCCN(c2ccc3nnc(C(F)(F)F)n3n2)CC1 [Example 460] | 5.1 µM |
| COc1ccccc1OCC1CCN(c2ccc3nnc(C(F)(F)F)n3n2)CC1 [Example 462] | 7.7 µM |
| COc1cccc(OCC2CCN(c3ccc4nnc(C(F)(F)F)n4n3)CC2)c1 [Example 466] | > 19 µM |
| Fc1ccccc1OCC1CCN(c2ccc3nnc(C(F)(F)F)n3n2)CC1 [Example 467] | 4.9 µM |

| Structure (SMILES) | DC50 |
| --- | --- |
| FC(F)(F)c1ccc(OCC2CCN(c3ccc4nnc(C(F)(F)F)n4n3)CC2)cc1 [Example 468] | > 11 µM |
| FC(F)(F)c1nnc2ccc(N3CCC(COc4ccc(Cl)cc4)CC3)nn12 [Example 470] | 4.6 µM |
| FC(F)(F)c1ccccc1OCC1CCN(c2ccc3nnc(C(F)(F)F)n3n2)CC1 [Example 471] | 2 µM |
| FC(F)(F)c1nnc2ccc(N3CCC(COc4cccc(Cl)c4)CC3)nn12 [Example 473] | 3.2 µM |
| FC(F)(F)c1nnc2ccc(N3CCC(COc4ccccc4Cl)CC3)nn12 [Example 475] | > 15 µM |
| N#Cc1cccc(OCC2CCN(c3ccc4nnc(C(F)(F)F)n4n3)CC2)c1 [Example 476] | 3.5 µM |
| FC(F)(F)c1nnc2ccc(N3CCN(Cc4c[nH]c5cnccc45)CC3)nn12 [Example 477] | 6.3 µM |
| FC(F)(F)c1nnc2ccc(N3CCN(Cc4c[nH]c5ccncc45)CC3)nn12 [Example 480] | 9.6 µM |
| FC(F)(F)c1nnc2ccc(N3CCC(COC4COC4)CC3)nn12 [Example 481] | 6.6 µM |
| Fc1cccc(OC2CN(c3ccc4nnc(C(F)(F)F)n4n3)C2)c1 [Example 483, 6-[3-(3-fluorophenoxy)azetidin-1-yl]-3-(trifluoromethyl)[1,2,4]triazolo[4,3-b]pyridazine] | > 30 µM |
| Fc1ccc(OC2CN(c3ccc4nnc(C(F)(F)F)n4n3)C2)cc1 [Example 484] | > 14 µM |
| COc1ccc(OC2CN(c3ccc4nnc(C(F)(F)F)n4n3)C2)cc1 [Example 486] | > 13 µM |
| CC(C)(C)OCC1CCN(c2ccc3nnc(C(F)(F)F)n3n2)CC1 [Example 489, 6-[4-(tert-butoxymethyl)piperidin-1-yl]-3-(trifluoromethyl)[1,2,4]triazolo[4,3-b]pyridazine] | 3.6 µM |
| Fc1cccc(OCC2CN(c3ccc4nnc(C(F)(F)F)n4n3)C2)c1 [Example 490] | 5.9 µM |
| Fc1cccc(OCC2CN(c3ccc4nnc(C(F)(F)F)n4n3)C2)c1 [Example 491] | 7.2 µM |
| FC(F)(F)c1nnc2ccc(N3CC(COc4cccnc4)C3)nn12 [Example 492] | > 30 µM |
| CN1CCN(C(=O)c2ccc3[nH]cc(C4CCN(c5ccc6nnc(C(F)(F)F)n6n5)CC4)c3c2)CC1 [Example 497] | 2.8 µM |
| COCCNC(=O)c1ccc2[nH]cc(C3CCN(c4ccc5nnc(C(F)(F)F)n5n4)CC3)c2c1 [Example 498] | 2.4 µM |

Now those with a lower DC50, led by results:

| DC50 | Structure (SMILES) |
| --- | --- |
| 1.9 µM | O=C(NCCN1CCCC1)c1ccc(OC2CCN(c3ccc4nnc(C(F)(F)F)n4n3)CC2)cc1 [Example 413] |
| 1.7 µM | CN(C)CCCOc1ccc(OC2CCN(c3ccc4nnc(C(F)(F)F)n4n3)CC2)cc1 [Example 430, N,N-dimethyl-3-[4-[[1-[3-(trifluoromethyl)-[1,2,4]triazolo[4,3-b]pyridazin-6-yl]piperidin-4-yl]oxy]phenoxy]propan-1-amine] |
| 1.5 µM | FC(F)(F)c1nnc2ccc(N3CCC(Oc4ccc(OCCN5CCCC5)cc4)CC3)nn12 [Example 431] |
| 0.9 µM | FC(F)(F)c1nnc2ccc(N3CCC(Oc4ccc(OCCCN5CCNCC5)cc4)CC3)nn12 [Example 433] |
| 0.98 µM | CN(C)CCOc1ccc(OC2CCN(c3ccc4nnc(C(F)(F)F)n4n3)CC2)cc1 [Example 435] |
| 0.75 µM | CN1CCC(Oc2ccc(OC3CCN(c4ccc5nnc(C(F)(F)F)n5n4)CC3)cc2)CC1 [Example 436] |
| 0.53 µM | CN1CCN(CCCOc2ccc(OC3CCN(c4ccc5nnc(C(F)(F)F)n5n4)CC3)cc2)CC1 [Example 437] |
| 1.6 µM | FC(F)(F)c1nnc2ccc(N3CCC(Oc4ccc(OCc5ccon5)cc4)CC3)nn12 [Example 438] |
| 0.48 µM | FC(F)(F)c1nnc2ccc(N3CCC(Oc4ccc(OCc5cnco5)cc4)CC3)nn12 [Example 439] |
| 0.22 µM | Cn1nccc1CCOc1ccc(OC2CCN(c3ccc4nnc(C(F)(F)F)n4n3)CC2)cc1 [Example 441] |
| 0.44 µM | Cn1nccc1COc1ccc(OC2CCN(c3ccc4nnc(C(F)(F)F)n4n3)CC2)cc1 [Example 442] |
| 1.5 µM | CN(C)CCCOc1cccc(OC2CCN(c3ccc4nnc(C(F)(F)F)n4n3)CC2)c1 [Example 443] |
| 1.6 µM | FC(F)(F)c1nnc2ccc(N3CCC(Oc4cccc(OCCCN5CCNCC5)c4)CC3)nn12 [Example 445] |
| 0.7 µM | Cc1cc(COc2cccc(OC3CCN(c4ccc5nnc(C(F)(F)F)n5n4)CC3)c2)no1 [Example 446] |
| 0.98 µM | Fc1ccc(OCC2CCN(c3ccc4nnc(C(F)(F)F)n4n3)CC2)cc1 [Example 463] |
| 1.4 µM | Fc1cccc(OCC2CCN(c3ccc4nnc(C(F)(F)F)n4n3)CC2)c1 [Example 464] |
| 1.8 µM | N#Cc1ccccc1OCC1CCN(c2ccc3nnc(C(F)(F)F)n3n2)CC1 [Example 469] |
| 0.96 µM | N#Cc1ccc(OCC2CCN(c3ccc4nnc(C(F)(F)F)n4n3)CC2)cc1 [Example 474] |
| 1.8 µM | FC(F)(F)COCC1CCN(c2ccc3nnc(C(F)(F)F)n3n2)CC1 [Example 482] |
| 0.43 µM | COc1ccc2[nH]cc(C3CCN(c4ccc5nnc(C(F)(F)F)n5n4)CC3)c2c1 [Example 494, 6-[4-(5-methoxy-1H-indol-3-yl)piperidin-1-yl]-3-(trifluoromethyl)[1,2,4]triazolo[4,3-b]pyridazine] |
| 0.35 µM | N#Cc1ccc2[nH]cc(C3CCN(c4ccc5nnc(C(F)(F)F)n5n4)CC3)c2c1 [Example 495, 3-[1-[3-(trifluoromethyl)[1,2,4]triazolo[4,3-b]pyridazin-6-yl]piperidin-4-yl]-1H-indole-5-carbonitrile] |
| 1.7 µM | CN(C)C(=O)c1ccc2[nH]cc(C3CCN(c4ccc5nnc(C(F)(F)F)n5n4)CC3)c2c1 [Example 499] |
